From patent US10201556B2, “Combination for use in treating diseases or conditions associated with melanoma, or treating diseases or conditions associated with activated B-raf pathway” (InteRNA Technologies B.V., priority 2012, dated 2019)
Like-named read-outs stand apart in the source and are kept apart here.

What was measured:
[1] = system: M376 melanoma cell line; assay: Anti-proliferative effect of small molecules, MTS assay; assay type: cell-based; conditions: M376, in vivo acquired resistance
Method: (§1) The anti-proliferative effect of small molecules in melanoma cell lines was determined with V600E BRAF inhibitor, vemurafenib (PLX-4032, 51267, Selleck) and MEK inhibitor, selumetinib (AZD-6244, S1008, Selleck). For each cell line optimal growth conditions were determined prior to the experiment. Cells were plated in a 96-well plate at 3000 cells per well (100 uL) and were grown at 37 C, 5% CO2. Small molecule mix (50 uL per well) was made for each concentration in medium. Cells were treated in triplicate 24 hours after plating. After 72 hours medium was replaced and viability was measured with the MTS assay (Promega) according to manufacturer's instructions. Cell viability inhibition is normalized against loading control (0.1% DMSO) and GraphPad Prism was used to fit the curve and calculate GI50 values.
(§2) A375 cells were obtained from the Hubrecht Institute (Utrecht, The Netherlands); SKMEL-28, A2058 and RPMI-7951 were from the ATCC; SKMEL-57 was a gift from Dr. Patricia Groenen (Radboud University Nijmegen Medical Centre, The Netherlands); for cell line characteristics of M249, M249-AR4, M233 and M376 see (Atefi et al. 2011). A375-R, with in vitro acquired resistance to vemurafenib, was established in our lab by clonal selection of cells continually exposed to 1 μM vemurafenib. A375, A375-R, SKMEL-28, A2058 and SKMEL-57 were grown in DMEM GlutaMAX™-I (Gibco®), all other cell lines in RPMI-1640 (Gibco®). Media was supplemented with 10% FBS (Sigma), and cells were maintained in a humidified 37° C. incubator (Thermo Scientific) with 5% CO2. Vemurafenib (PLX4032; Selleck Chemicals) was diluted in DMSO to a stock concentration of 10 mM.

[2] = system: M233 melanoma cell line; assay: as above; assay type: cell-based; conditions: M233, vemurafenib resistant
Method: as §1, §2

[3] = system: SKMEL-28 melanoma cell line; assay: as above; assay type: cell-based; conditions: Homo sapiens, SK-MEL-28, SKMEL-28, vemurafenib sensitive
Method: as §1, §2

[4] = system: SKMEL-57 melanoma cell line; assay: as above; assay type: cell-based; conditions: SKMEL-57, vemurafenib sensitive
Method: as §1, §2

[5] = system: phospho-ERK1/2; conditions: cited from earlier work
[6] = system: A375Hu-R1 (vemurafenib resistant clone of A375Hu); assay: Anti-proliferative effect of small molecules, MTS assay; assay type: cell-based; conditions: Homo sapiens, A375Hu-R1 (A375-R), in vitro acquired resistance, 72 hours
Method: as §1
The A375Hu melanoma cell line was used to make a vemurafenib (PLX-4032) resistant sub line. A375Hu cells were plated at low density in 96-well plates and exposed to 1 uM PLX-4032. Cell growth was monitored until clonal growth was observed. Wells with clonal growth (approximately 5%) were replated in a 96-well plate and exposed to 1 uM PLX-4032. The 10 best growing clones were replated in 6-well plates in 1 uM PLX-4032 and the three best growing clones were used for further culturing. Clone number 1 (A375Hu-R1) grew best with 1 uM PLX-4032 and was chosen for additional experiments.

[7] = system: A375Hu-R1 melanoma cell line; assay: Anti-proliferative effect of miRNA mimics, MTS assay; assay type: cell-based, human; conditions: 10 nM mimic, 72 hours after transfection
Method: (§3) The anti-proliferative effect of miRNA's in melanoma cell lines was determined with mature miRNA mimics from Ambion. For each cell line optimal growth and transfection conditions were determined prior to the experiment. Cells were plated in a 96-well plate at 3000 cells per well (100 uL) and were grown at 37 C, 5% CO2. Transfection mix (20 uL per well) was made for each miRNA mimic concentration with 0.3 uL (M249, M249-R4) or 0.5 uL (A375Hu, A375Hu-R1, A2058, RPMI-7951) X-TremeGene (Roche) per well (according to manufacturer's instructions) in Optimem (Invitrogen). Cells were transfected 24 hours after plating in triplicate. Medium was replaced 48 hours after transfection with fresh medium.

[8] = system: A375Hu melanoma cell line; assay: as above; assay type: cell-based, human; conditions: 10 nM mimic, 72 hours after transfection
Method: as §3

[9] = system: BRAFV600E mutant melanoma cell lines SKMEL-28, SKMEL-57 and M249; assay: MTS cell viability after miR-3157 mimic transfection, vemurafenib-sensitive lines; assay type: cell-based; conditions: SKMEL-28, SKMEL-57, M249; 10 nM mimic, 72 hours (FIG. 11a)
Method: miR-3157 broadly affects melanoma cell line viability. Melanoma cell lines were divided into those that have the BRAFV600E mutation and are sensitive (a), intrinsically resistant (b) or acquired resistance to vemurafenib (c). Cell lines were transfected in triplicate with control miRNA or miR-3157 mimics (10 nM; n=2). Mock is transfectant only. Cell viability was determined using the MTS assay and calculated relative to mock transfected cells.
as §2, with “Vemurafenib (PLX4032; Selleck Chemicals) was diluted in DMSO to a stock concentration of 10 mM.” left out
Cells were seeded in 96-well plates and transfected the next day. […] Read-out was performed at 490 nm on a Multiskan FC plate reader (Thermo Scientific) at 72 hours post transfection.

Row | Molecule | GI50 [1] [µM] | GI50 [2] [µM] | GI50 [3] [nM] | GI50 [4] [nM] | pERK ([5]; A375, A2058 and M249 (Atefi et al. 2011, Nazarian et al. 2010)) | pERK ([5]; M249-AR4 and M376 (Atefi et al. 2011, Nazarian et al. 2010)) | GI50 [6] [µM] | A375Hu-R1 % Viability 10 nM [7] [%] | A375Hu % Viability 10 nM [8] [%] | cell viability relative to mock transfected cells [9]
1 | CCCS(=O)(=O)Nc1ccc(F)c(C(=O)c2c[nH]c3ncc(-c4ccc(Cl)cc4)cc23)c1F [Vemurafenib, N-(3-{[5-(4-chlorophenyl)-1H-pyrrolo[2,3-b]pyridin-3-yl]carbonyl}-2,4-difluorophenyl)propane-1-sulfonamide] | > 10 | > 10 | ~600 | ~800 | downregulates | not | > 10 | – | – | –
2 | hsa-miR-3157-5p: mature miRNA mimic, SEQ ID NO 6 UUCAGCCAGGCUAGUGCAGUCU (listed as RNA, chemistry not given here) | – | – | – | – | – | – | – | 67 | 42 | strongly reduced cell viability
